{"source": "paper PMC10484210", "about": "(Biochemistry, 2023)", "key": {"BcPurE": {"target": "BcPurE (Burkholderia cenocepacia, UniProt B4EA21)", "sequence (B4EA21 1-173)": "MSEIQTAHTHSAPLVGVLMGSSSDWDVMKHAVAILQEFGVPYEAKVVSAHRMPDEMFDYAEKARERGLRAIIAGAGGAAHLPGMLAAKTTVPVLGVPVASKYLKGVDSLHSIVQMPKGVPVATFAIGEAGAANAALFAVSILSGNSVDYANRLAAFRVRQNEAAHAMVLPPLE", "experiment": "biochemical", "format": "biochemical", "conditions": "for inhibition of PurE activity in initial screen: two concentrations, 10 and 100 μM, against BcPurE"}, "human PAICS": {"target": "human PAICS (Homo sapiens, UniProt P22234)", "sequence (P22234 whole entry)": "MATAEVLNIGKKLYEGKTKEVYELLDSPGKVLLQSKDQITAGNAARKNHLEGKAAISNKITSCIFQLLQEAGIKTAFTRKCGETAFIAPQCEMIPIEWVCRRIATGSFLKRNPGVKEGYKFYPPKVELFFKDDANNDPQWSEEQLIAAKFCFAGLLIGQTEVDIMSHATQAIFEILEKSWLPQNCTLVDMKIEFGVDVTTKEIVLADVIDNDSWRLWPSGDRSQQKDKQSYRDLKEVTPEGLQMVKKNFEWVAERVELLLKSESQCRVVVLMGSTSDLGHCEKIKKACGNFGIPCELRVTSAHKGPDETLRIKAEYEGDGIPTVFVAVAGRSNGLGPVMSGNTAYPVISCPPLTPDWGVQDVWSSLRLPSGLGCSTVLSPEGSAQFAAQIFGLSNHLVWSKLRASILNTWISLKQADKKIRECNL", "format": "biochemical", "conditions": "two concentrations, 10 and 100 μM"}}}
{"smiles": "CN(C)C/C=C/C(=O)Nc1cc2c(Nc3ccc(F)c(Cl)c3)ncnc2cc1O[C@H]1CCOC1", "note": "[Afatinib]", "values": [{"measurement": "inhibition of PurE activity in initial screen", "setting": "BcPurE", "result": "some degree of inhibition"}, {"measurement": "inhibition of human PAICS decarboxylation activity", "setting": "human PAICS", "result": "do inhibit"}]}
{"smiles": "COc1cc2nc(N(C)CCCNC(=O)C3CCCO3)nc(N)c2cc1OC", "note": "(centres unmarked) [Alfuzosin]", "values": [{"measurement": "IC50", "setting": "BcPurE", "result": 47, "unit": "µM"}, {"measurement": "inhibition of PurE activity in initial screen", "setting": "BcPurE", "result": "some degree of inhibition"}, {"measurement": "inhibition of human PAICS decarboxylation activity", "setting": "human PAICS", "result": "little or no inhibition"}]}
{"smiles": "COc1ccc(CN=c2[nH]c(N3CCC[C@H]3CO)ncc2C(=O)NCc2ncccn2)cc1Cl", "note": "[Avanafil]", "values": [{"measurement": "inhibition of PurE activity in initial screen", "setting": "BcPurE", "result": "some degree of inhibition"}, {"measurement": "inhibition of human PAICS decarboxylation activity", "setting": "human PAICS", "result": "little or no inhibition"}]}
{"smiles": "CCc1cc2c(cc1CC)CC(NC[C@H](O)c1ccc(O)c3[nH]c(=O)ccc13)C2", "note": "[Indacaterol]", "values": [{"measurement": "inhibition of PurE activity in initial screen", "setting": "BcPurE", "result": "some degree of inhibition"}, {"measurement": "inhibition of human PAICS decarboxylation activity", "setting": "human PAICS", "result": "do inhibit"}]}
{"smiles": "CC(=O)N1CCN(c2ccc(OCC3COC(Cn4ccnc4)(c4ccc(Cl)cc4Cl)O3)cc2)CC1", "note": "(centres unmarked) [Ketoconazole]", "values": [{"measurement": "inhibition of PurE activity in initial screen", "setting": "BcPurE", "result": "some degree of inhibition"}, {"measurement": "inhibition of human PAICS decarboxylation activity", "setting": "human PAICS", "result": "little or no inhibition"}]}
